Data on three substances can be found in patent US8980249B2, “Agonists of growth hormone releasing hormone as effectors for survival and proliferation of pancreatic islets” (University of Miami, priority 2010, dated 2015).

Where “and” joins values, the source holds several entries; their conditions need not be identical. Identical values can stand only once. Entries after “also recorded” stand apart in the source; their conditions may differ. Square brackets hold non-standard residues; d marks the D form. Ends that are not written are not given here. * marks the point of attachment. Agmatine = N=C(N)NCCCCN*; Nle = CCCC[C@H](N)C(=O)O; Orn = NCCC[C@H](N)C(=O)O; Abu = CC[C@H](N)C(=O)O

Test [1] has as its system INS-1 cells. The test is described as follows: Cell proliferation of INS-1 insulinoma cells. The test is classed as cell-based, rat. On the procedure:
(§1) Rat insulinoma cells (INS-1) were cultured in RPMI 1640 medium (PAA, Pasching, Austria) supplemented with 2 mM L-glutamine, 10% fetal bovine serum (FBS), 1 mM Na-pyruvate, 50 μM 2-mercaptoethanol and 100 U/ml penicillin-streptomycin (Gibco, Gaithersburg Md.) in a humidified 5% CO2/[…] atmosphere at 37° C. The culture medium was changed every other day. Cells were grown for 72 hrs prior to experimentation. GHRH agonist JI-36 (10^−6-10^−9 M) and GHRH antagonist MIA-602 ([…]) were used for 24-96 hrs, respectively.
(§2) INS-1 cells were grown for 72 hrs prior to experimentation; islets were collected immediately after the isolation procedure and each were divided into three treatment groups: (1) Culture media with vehicle (DMSO) served as control group, (2) Culture media containing GHRH agonist JI-36 (10^−6 M), (3) culture media with JI-36 plus GHRH antagonist MIA-602 (10^−6 M). Media change and addition of the analogues was performed after 24 hrs and 48 hrs in islet cultures and every other day in INS-1 cell cultures.

For test [2], the system named is INS-1 cells. The test can be described thus: Cell apoptosis of INS-1 cells (activity of caspases 3 and 7). Type of test: cell-based, rat. On the procedure:
as §1, §2

Test [3] has as its system INS-1 cells. The test is described as follows: Ultrastructural analysis of INS-1 cells. The test is classed as cell-based, rat. As to conditions: JI-36 10^−6 M. On the procedure:
as §2

Test [4] has as its system isolated rat islets. The test is described as follows: Islet particle number and islet size (islet equivalents) in culture. The test is classed as cell-based. Conditions: rat islets in culture with JI-36 10^−6 M. On the procedure:
Pancreatic islets were isolated from male Wistar rats according to guidelines established by the University of Dresden Institutional Animal Care and Use Committee. Animals were anesthetized by 3% isoflurane; digestion solution (Collagenase V, Sigma-Aldrich, St. Louis, Mo.) was injected in situ via the pancreatic common bile duct. Islets were purified by centrifugation on a discontinuous Ficoll gradient (Mediatech). Purified islets were maintained in culture media (CMRL 1066, Mediatech, USA) supplemented with 10% FBS at 37° C. in a 5% CO2 incubator. Volume and purity were determined by microscopic sizing after staining with dithizone (Sigma-Aldrich, St. Louis, Mo.).
Triplicate samples of 100 to 300 islet particles were stained with dithizone (Sigma-Aldrich, St. Louis, Mo.), which binds zinc ions present specifically in islet β-cells, and sized using an eyepiece reticle and inverted microscope (32). The term islet particle describes an individual islet independent of its size. All islet particles with a diameter >50 μm were divided into classes of 50 μm increments (i.e., 50-100, 100-150, 150-200, etc.) for calculation of islet equivalents (IEQ). Each diameter class was converted into the mean volume of 150-μm diameter islets by a relative conversion factor. These factors allow converting the total islet particle number from any preparation into IEQ. […]

Test [5] concerns isolated rat islets. The test can be described thus: Immunostaining of islets for insulin and Ki-67. The test is classed as cell-based. Conditions: 72 hrs in culture with JI-36.
Test [6] has as its system rat islets. The test is described as follows: Islet membrane integrity, FDA/PI viability staining. The test is classed as cell-based. As to conditions: 72 hrs in culture, n=4. As to the method:
Small aliquots of islets were transferred in phosphate-buffered saline (PBS) containing Petri dishes. Fluorescein diacetate (FDA) and propidium iodide (PI) were added to the samples at a final concentration of 0.5 and 75 μM, respectively. Using a fluorescence microscope, 100 islets were assessed for cell viability by estimating the percentage of viable cells (green) versus percentage of non-viable cells (red) within each islet. The percentage of viable cells was then calculated (33).

Test [7] concerns rat islets. The test is described as follows: Static glucose-stimulated insulin secretion. Type of test: cell-based. As to the method:
For static insulin secretion in response to glucose challenge, islets were transferred into Petri dishes containing oxygenated Krebs-Ringer bicarbonate buffer (KRB, 137 mM NaCl, 4.7 mM KCl, 1.2 mM KH2PO4, 1.2 mM MgSO4-7H2O, 2.5 mM CaCl2-2H2O, 25 mM NaHCO3, 0.25% BSA) and pre-incubated in 3.3 mM glucose at 37° C. (5% CO2) for 30 min. Groups of 8-10 islets from the equilibration cultures were transferred to fresh oxygen-saturated media containing either 3.3 or 16.7 mM glucose and then incubated an additional 60 min in a 37° C. water bath with gentle shaking. Secreted insulin in the media was measured by ELISA (Millipore, Billerica, Mass.) and values normalized to extracted islet DNA (Quant-iT™ Picogreen, Invitrogen).

In test [8] the test system is streptozotocin-induced diabetic NOD-SCID mice. The test is described as follows: Transplantation of pretreated rat islets beneath the kidney capsule of diabetic mice. Type of test: in vivo. On the procedure:
NOD-SCID mice (MTZ breed) with induced diabetes were used as islet recipients following guidelines established by the University of Dresden Institutional Animal Care and Use Committee. Diabetes was induced by a single intraperitoneal injection of 180 mg/kg streptozotocin (Sigma-Aldrich, St. Louis, Mo.). Serum glucose was then measured daily using an Ascensia Elite glucometer (Bayer, Burr Ridge, Ill.). Mice were considered diabetic if non-fasting blood glucose (BG) was >350 mg/dL for two or more consecutive days. Rat islet preparations were used for transplantation. Islets from each preparation were divided into two groups, and JI-36 (10^−6 M) or vehicle (DMSO) was added to the culture media. Islets were cultured for 48 hrs prior to transplantation. After culture, samples of 300 IEQ were washed in transplant media (Ringer acetate with 5% glucose and 10% FBS), and transplanted to beneath the left kidney capsule. The animal experiments and housing were in accordance with institutional guidelines and German animal regulations.
The non-fasting blood glucose levels were measured daily during the first week and twice a week thereafter. On day 25, mice were subjected to an intraperitoneal glucose tolerance test (IPGTT). Two days later, grafts were removed. This led to a recurrence of the diabetic state. This proves that restoration and maintenance of normoglycemia was due to islet graft function.
On follow-up, sustained non-fasting blood glucose levels of ≦10 mM (≦180 mg/dl) were defined as “cure”, 10 to 18 mM (180 to 320 mg/dl) as “partial function” of transplanted islets, and levels above 18 mM (>320 mg/dl) as “graft failure”.

The test system is the same in test [9]. The test can be described thus: Intraperitoneal glucose tolerance test after islet transplantation. Type of test: in vivo. As to the method: Mice were fasted overnight (at least 6 hrs) before examination. A glucose solution was given at 3 g/kg BW i.p. and blood glucose was recorded before injection and 15, 30, 45, 60, 90 and 120 min following glucose injection. Non-transplanted mice were used as controls and tested concurrently.

The subject of another test is cardiomyocytes. Conditions: in vitro; cited from earlier work.
The next test has as its system rat hearts. As to conditions: cited from earlier work.
Test [10] relates to myocardial infarction (MI). As to conditions: in vivo; cited from earlier work.

For the substance “(Dat^1, Thr^8, Orn^12,21, Abu^15, Nle^27, Asp^28, Agm^29)hGH-RH(1-29) ([Dat]ADAIFTTSYR[Orn]VL[Abu]QLSAR[Orn]LLQDI[Nle]D[Agmatine]) [JI-36, synthetic GHRH agonist]”, the “cell proliferation rates (in words)” value with INS-1 cells [1] (10^−6-10^−9 M, 24-96 hrs) was “significant and dose-dependent increase”. Further, the “increase in cell proliferation compared to control” value in the test with INS-1 cells [1] (JI-36 10^−6 M, 72 hrs) turned out to be 50%. Also, in the test on INS-1 cells [1] (tested 10^−6-10^−9 M), the “most effective concentration for cell proliferation” value was 10^−6 M. In addition, the “degree of cell apoptosis (in words)” value with INS-1 cells [2] (10^−6-10^−9 M, 24-96 hrs, INS-1 cells) is recorded as “significant decrease; also recorded: reduction”. In addition, in the test with INS-1 cells [2] (JI-36 10^−6 M, 72 hrs, INS-1 cells), the “reduction of apoptosis (activity of caspases 3 and 7)” value stood at 20%. In the test with INS-1 cells [2] (incubation 24-96 hrs), the “time of maximal anti-apoptotic effect” value amounted to 72 h. In the test on INS-1 cells [2] (tested 10^−6-10^−9 M, INS-1 cells), the “most effective concentration for anti-apoptotic effect” value was 10^−6 M. In the test on INS-1 cells [3], the “ultrastructural changes / metabolic state” value is “more active metabolic state; also recorded: metabolic active stimulation state with increased cytoplasm”. For the same substance, the “islet equivalents (IEQ/IP ratio, islet size) versus control” value with isolated rat islets [4] (24-72 hrs) is recorded as “increased islet size”. Moreover, the “number of islet particles over time versus control” value in the test with isolated rat islets [4] (up to 72 hrs) is “no relevant change; also recorded: no difference between treatment group and control”. Further, the “insulin and Ki-67 staining (proliferation in beta cells)” value with isolated rat islets [5] is “co-localization of the two markers”. In the test with rat islets [6], this substance displayed an islet viability of 96±3.3%. Moreover, in the test on rat islets [7] (3.3 mM glucose), the “insulin release at basal glucose versus control (in words)” value is given as “slight increase; also recorded: did not cause a relevant difference”. Also, the “insulin release at basal glucose” value with rat islets [7] (3.3 mM glucose, 1 hr, after 48 hrs exposure, n=5) was 2.3 ± 0.5 ng/mL. Also, the “insulin release upon glucose stimulation compared to control (in words)” value with rat islets [7] (16.7 mM glucose) is recorded as “more than double; also recorded: increased”. The “insulin release at high glucose” value with rat islets [7] (16.7 mM glucose, after 48 hrs exposure, n=5) turned out to be 8.2 ± 0.2 ng/mL. For the same substance, the “insulin release at high glucose relative to basal glucose” value in the test with rat islets [7] (16.7 mM vs 3.3 mM glucose) stood at 3.6 fold. For the same substance, the “animals cured (stable normoglycemia)” value in test [8] (300 IEQ islets pretreated with JI-36 10^−6 M 48 hrs, day 25) is 5 of 6 and 5 out of 6. Moreover, the “graft integration (insulin immunostaining)” value in test [8] (day 27 after transplantation) is recorded as “stable graft integration”. Moreover, the “blood glucose control after transplantation versus untreated islets (in words)” value in test [8] (islets pretreated with JI-36) was “consistently performed better; also recorded: rapid and persistent recovery from diabetes; also recorded: earlier and more consistently”. In test [8] (islets pretreated with JI-36, day 25), the “animals with partial graft function” value is “one”. Besides, in test [9] (day 25), the “time to revert initial hyperglycemia to normal ranges in IPGTT” value is not above 2 h. The “response in IPGTT” value in test [9] (day 25, glucose 3 g/kg i.p.) is recorded as “comparable to that of normal healthy mice”.
Consider “rat GHRH: rat growth hormone-releasing hormone, cited cardioprotection study (HADAIFTSSYRRILGQLYARKLLHEIMNRQQGERNQEQRSRFN; Somatoliberin; UniProt P09916 31-73, looked up)”, for which the survival of cardiomyocytes result with cardiomyocytes is “promoted survival”. In the test on rat hearts, the “protection from ischemia-reperfusion injury” value is reported as “protected”.
Consider “(Dat^1, Gln^8, Orn^12,21, Abu^15, Nle^27, Asp^28, Agm^29)hGH-RH(1-29) [JI-38]”, for which, in test [10], the “cardiac effect following myocardial infarction” value is on record as “favorable cardiac effect, attenuating infarct size”.
